Experimental data from ChEMBL document CHEMBL1201862, “PubChem BioAssay data set” (2004).
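Five compound concentrations were applied to cells in 96-well plates for 48 hours; endpoints were derived by simple linear interpolation of the resulting dose-response curve. Here, GI50 denotes the concentration required for 50% inhibition of growth.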 Active and inactive are the calls of the source. No stated cut-off is given here; in the data, active = GI50 up to about 1.1 µM and inactive = higher.

How the values were obtained:
Experiment in all cases: inhibition of tumour cell growth, NCI panel, 48 h
[1] = tested on: K562
[2] = tested on: CCRF-CEM
[3] = tested on: BT-549
[4] = tested on: MDA-N
[5] = tested on: MDA-MB-231
[6] = tested on: MCF7
[7] = tested on: MDA-MB-435
[8] = tested on: OVCAR-4
[9] = tested on: TK-10
[10] = tested on: MOLT-4
[11] = tested on: SW-620
[12] = tested on: NCI-H226
[13] = tested on: SF-539
[14] = tested on: HCT-116
[15] = tested on: LOX IMVI
[16] = tested on: SK-MEL-2
[17] = tested on: NCI-H460
[18] = tested on: RPMI-8226
[19] = tested on: SNB-75
[20] = tested on: EKVX
[21] = tested on: NCI-H522
[22] = tested on: OVCAR-5
[23] = tested on: COLO 205
[24] = tested on: U-251
[25] = tested on: SK-OV-3
[26] = tested on: SK-MEL-5
[27] = tested on: RXF 393
[28] = tested on: OVCAR-3
[29] = tested on: UO-31
[30] = tested on: DU-145
[31] = tested on: Malme-3M
[32] = tested on: A549
[33] = tested on: KM12
[34] = tested on: A498
[35] = tested on: SNB-19
[36] = tested on: SF-268
[37] = tested on: NCI-H23
[38] = tested on: HT-29
[39] = tested on: HCT-15
[40] = tested on: IGROV-1
[41] = tested on: OVCAR-8
[42] = tested on: M14
[43] = tested on: Hs-578T
[44] = tested on: PC-3
[45] = tested on: ACHN
[46] = tested on: T47D
[47] = tested on: HOP-62
[48] = tested on: UACC-62
[49] = tested on: SN12C
[50] = tested on: 786-0
[51] = tested on: SK-MEL-28
[52] = tested on: UACC-257
[53] = tested on: CAKI-1
[54] = tested on: NCI/ADR-RES
[55] = tested on: SF-295
[56] = tested on: SR
[57] = tested on: HCC 2998
[58] = tested on: HOP-92
[59] = tested on: HL-60

With `COC(=O)C(NC(=O)C(CC(=O)OC(C)(C)C)NC(=O)OC(C)(C)C)C(O)c1ccccc1` (stereo not given) the GI50 [1] was > 100 µM (inactive), the GI50 [2] was > 100 µM (inactive) and the GI50 [3] was > 100 µM (inactive). For the same compound, the GI50 [4] was > 100 µM (inactive), the GI50 [5] was > 100 µM (inactive) and the GI50 [6] was > 100 µM (inactive). The GI50 [7] was > 100 µM (inactive), the GI50 [8] was > 100 µM (inactive) and the GI50 [9] was > 100 µM (inactive). The GI50 [10] was > 100 µM (inactive), the GI50 [11] was > 100 µM (inactive) and the GI50 [12] was > 100 µM (inactive). For the same compound, the GI50 [13] was > 100 µM (inactive), the GI50 [14] was > 100 µM (inactive) and the GI50 [15] was > 100 µM (inactive). For the same compound, the GI50 [16] was > 100 µM (inactive), the GI50 [17] was > 100 µM (inactive) and the GI50 [18] was > 100 µM (inactive). The GI50 [19] was > 100 µM (inactive), the GI50 [20] was > 100 µM (inactive) and the GI50 [21] was > 100 µM (inactive). For the same compound, the GI50 [22] was > 100 µM (inactive), the GI50 [23] was > 100 µM (inactive) and the GI50 [24] was > 100 µM (inactive). The GI50 [25] was 16.1 µM (inactive), the GI50 [26] was > 100 µM (inactive) and the GI50 [27] was 97.5 µM (inactive). The GI50 [28] was > 100 µM (inactive), the GI50 [29] was > 100 µM (inactive) and the GI50 [30] was > 100 µM (inactive). The GI50 [31] was > 100 µM (inactive), the GI50 [32] was > 100 µM (inactive) and the GI50 [33] was > 100 µM (inactive). The GI50 [34] was > 100 µM (inactive), the GI50 [35] was > 100 µM (inactive) and the GI50 [36] was > 100 µM (inactive). For the same compound, the GI50 [37] was > 100 µM (inactive), the GI50 [38] was > 100 µM (inactive) and the GI50 [39] was > 100 µM. The GI50 [40] was > 100 µM (inactive), the GI50 [41] was > 100 µM (inactive) and the GI50 [42] was > 100 µM (inactive). For the same compound, the GI50 [43] was > 100 µM (inactive), the GI50 [44] was > 100 µM (inactive) and the GI50 [45] was > 100 µM (inactive). The GI50 [46] was > 100 µM (inactive), the GI50 [47] was > 100 µM (inactive) and the GI50 [48] was 3.92 µM (inactive). For the same compound, the GI50 [49] was > 100 µM (inactive), the GI50 [50] was > 100 µM (inactive) and the GI50 [51] was > 100 µM (inactive). The GI50 [52] was 74.5 µM (inactive), the GI50 [53] was > 100 µM (inactive) and the GI50 [54] was > 100 µM (inactive).

`CCCCc1ccc(Nc2nc(N)c3ncn(COCCO)c3n2)cc1` was tested, and the GI50 [1] was 7.01 µM (inactive), the GI50 [2] was 26.4 µM (inactive) and the GI50 [3] was 25.5 µM (inactive). For the same compound, the GI50 [4] was 37.2 µM (inactive), the GI50 [5] was 29 µM (inactive) and the GI50 [6] was 37.4 µM (inactive). For the same compound, the GI50 [7] was 22.1 µM (inactive), the GI50 [8] was 32.2 µM (inactive) and the GI50 [9] was 52.6 µM (inactive). The GI50 [10] was 33 µM (inactive), the GI50 [11] was 26.1 µM (inactive) and the GI50 [12] was 44.3 µM (inactive). The GI50 [13] was 28.2 µM (inactive), the GI50 [14] was 26.9 µM (inactive) and the GI50 [15] was 18.9 µM (inactive). For the same compound, the GI50 [16] was 17 µM (inactive), the GI50 [18] was 30.6 µM (inactive) and the GI50 [19] was 32.6 µM (inactive). For the same compound, the GI50 [20] was 41.4 µM (inactive), the GI50 [21] was 26.1 µM (inactive) and the GI50 [22] was 38.8 µM (inactive). The GI50 [23] was 17.2 µM (inactive), the GI50 [24] was 22.1 µM (inactive) and the GI50 [25] was 11.2 µM (inactive). For the same compound, the GI50 [55] was 19.8 µM (inactive), the GI50 [26] was 18 µM (inactive) and the GI50 [27] was 30.1 µM (inactive). The GI50 [28] was 16.6 µM (inactive), the GI50 [29] was 29.9 µM (inactive) and the GI50 [30] was 37.7 µM (inactive). The GI50 [31] was 25.7 µM (inactive), the GI50 [32] was 44.3 µM (inactive) and the GI50 [56] was 18 µM (inactive). The GI50 [33] was 32.8 µM (inactive), the GI50 [34] was 28.2 µM (inactive) and the GI50 [35] was 48.9 µM (inactive). For the same compound, the GI50 [36] was 33 µM (inactive), the GI50 [37] was 21.3 µM (inactive) and the GI50 [38] was 24.4 µM (inactive). For the same compound, the GI50 [39] was 19.3 µM, the GI50 [57] was 27.2 µM (inactive) and the GI50 [40] was 18 µM (inactive). The GI50 [41] was 25.9 µM (inactive), the GI50 [42] was 20.6 µM (inactive) and the GI50 [58] was 18.2 µM (inactive). For the same compound, the GI50 [43] was 36.8 µM (inactive), the GI50 [45] was 18 µM (inactive) and the GI50 [46] was 24.4 µM (inactive). For the same compound, the GI50 [47] was 17.1 µM (inactive), the GI50 [48] was 16.8 µM (inactive) and the GI50 [59] was 36.3 µM (inactive). For the same compound, the GI50 [49] was 33 µM (inactive), the GI50 [50] was 25.5 µM (inactive) and the GI50 [52] was 21.3 µM (inactive). The GI50 [53] was 38.7 µM (inactive) and the GI50 [54] was 20.9 µM (inactive).
